# Reference: patent US6579967B1, “Receptor-selective somatostatin analogs” (The Salk Institute for Biological Studies, priority 1999, dated 2003)
# Entries after “also recorded” stand apart in the source; their conditions may differ. Like-named read-outs stand apart in the source and are kept apart here.
# Tests used:
# Format in all cases: binding
# human SSTR1 = molecular target: T1, human SSTR1 (Homo sapiens, UniProt P30872); experiment: Displacement of 125I-[Leu8,D-Trp22,Tyr25]-somatostatin-28 from cloned SSTR1 (receptor autoradiography on membrane pellets)
# T1 construct: expressed in transfected cells; host or cells: CHO-K1 cells and CCL39 cells
# T1 sequence (P30872 whole entry): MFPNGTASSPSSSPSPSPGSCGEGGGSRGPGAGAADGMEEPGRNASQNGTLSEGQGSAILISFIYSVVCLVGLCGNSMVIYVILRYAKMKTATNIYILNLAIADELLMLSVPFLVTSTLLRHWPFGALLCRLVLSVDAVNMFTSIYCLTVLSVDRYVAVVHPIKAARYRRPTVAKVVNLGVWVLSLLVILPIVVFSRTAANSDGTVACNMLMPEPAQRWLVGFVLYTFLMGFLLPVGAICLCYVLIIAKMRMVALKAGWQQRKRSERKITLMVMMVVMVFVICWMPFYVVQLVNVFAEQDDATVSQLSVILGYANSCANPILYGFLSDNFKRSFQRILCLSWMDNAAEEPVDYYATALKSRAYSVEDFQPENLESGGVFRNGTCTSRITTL
# Method: (§1) Generally, recombinant cells expressing the receptor are washed and homogenized to prepare a crude protein homogenate in a suitable buffer, as known in the art. In a typical assay, an amount of protein from the cell homogenate is placed into a small volume of an appropriate assay buffer at an appropriate pH. Candidate substances, such as potential SRIF agonists and antagonists, are added to the admixture in convenient concentrations, and the interaction between the candidate substance and the receptor polypeptide is monitored.
# (§2) Receptor binding assays are performed on cloned SRIF receptors as generally set forth in Raynor et al. supra. Using such assays, one can generate KD values which are indicative of the concentration of a ligand necessary to occupy one-half (50%) of the binding sites on a selected amount of a receptor or the like, or alternatively, competitive assays can generate IC50 values which are indicative of the concentration of a competitive ligand necessary to displace a saturation concentration of a target ligand being measured from 50% of binding sites.
# (§3) In vitro Bioassay: The various somatostatin analogs are tested in vitro for their ability to bind to isolated cloned receptors expressed on CHO-K1 cells and CCL39 cells. CHO-K1 cells are grown in Ham's F-12 medium, and CCL39 cells are grown in Dulbecco's modified Eagle's medium/Ham's F-12(1:1) mix, supplemented with 10% fetal bovine serum, 100 U/ml penicillin and 100 μg/ml streptomycin, in humidified air containing 5% CO2 at 37° C.
# (§4) Cells are washed twice with and scraped into ice-cold 0.05 M Tris-HCl (pH 7.4), collected by centrifugation, and homogenized using a rotor/stator slash system in the same buffer. After centrifugation at 120 g for 5 min. at 4° C., the supernatant is collected and centrifuged again at 48,000 g for 30 min. at 4° C. The resulting pellet is resuspended in ice-cold Tris buffer, transferred into a microfuge tube, and centrifuged at 20,000 g for 15 min. at 4° C. After withdrawal of the supernatant, the membrane pellet is stored at −80° C.
# (§5) Receptor autoradiography is performed on 20 μm thick cryostat sections of the membrane pellets, mounted on microscope slides, and then stored at −20° C. […] […] Unlabeled somatostatin-28 is run in parallel using the same increasing concentrations, as a control. IC50 values are calculated after quantification of the data using a computer-assisted image processing system as known in this art.
# human SSTR2 = molecular target: T2, human SSTR2 (Homo sapiens, UniProt P30874); experiment: Displacement of 125I-[Leu8,D-Trp22,Tyr25]-somatostatin-28 from cloned SSTR2 (receptor autoradiography on membrane pellets)
# T2 construct: expressed in transfected cells; host or cells: CHO-K1 cells and CCL39 cells
# T2 sequence (P30874 whole entry): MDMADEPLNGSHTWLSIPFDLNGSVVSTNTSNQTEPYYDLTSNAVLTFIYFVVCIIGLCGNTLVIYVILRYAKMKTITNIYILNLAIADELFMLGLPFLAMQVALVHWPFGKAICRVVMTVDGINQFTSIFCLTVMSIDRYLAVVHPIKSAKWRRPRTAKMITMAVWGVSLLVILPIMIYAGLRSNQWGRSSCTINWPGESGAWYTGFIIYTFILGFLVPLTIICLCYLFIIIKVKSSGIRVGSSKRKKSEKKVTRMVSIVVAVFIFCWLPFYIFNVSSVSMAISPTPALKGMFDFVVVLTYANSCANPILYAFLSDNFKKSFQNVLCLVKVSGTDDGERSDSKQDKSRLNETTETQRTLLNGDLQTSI
# Method: as §1, §2, §3, §4, §5
# human SSTR3 [1] = molecular target: T3, human SSTR3 (Homo sapiens, UniProt P32745); experiment: Displacement of 125I-[Leu8,D-Trp22,Tyr25]-somatostatin-28 from cloned SSTR3 (receptor autoradiography on membrane pellets); conditions: for binding strength and selectivity for SSTR3, in words: qualitative statement
# T3 construct: expressed in transfected cells; host or cells: CHO-K1 cells and CCL39 cells
# T3 sequence (P32745 whole entry): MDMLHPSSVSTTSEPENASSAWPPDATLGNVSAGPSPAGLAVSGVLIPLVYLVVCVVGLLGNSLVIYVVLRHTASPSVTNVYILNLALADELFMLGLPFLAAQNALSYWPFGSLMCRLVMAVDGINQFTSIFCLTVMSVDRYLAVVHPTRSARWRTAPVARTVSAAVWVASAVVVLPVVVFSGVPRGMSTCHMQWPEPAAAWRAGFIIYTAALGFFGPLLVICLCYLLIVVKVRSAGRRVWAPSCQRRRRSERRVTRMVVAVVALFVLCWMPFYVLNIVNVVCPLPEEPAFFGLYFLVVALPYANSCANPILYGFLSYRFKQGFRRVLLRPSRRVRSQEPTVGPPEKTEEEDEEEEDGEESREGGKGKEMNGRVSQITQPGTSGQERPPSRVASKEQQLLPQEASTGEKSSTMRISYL
# Method: as §1
# as §2, with “sites. The peptide des-AA^1,2,4,5,12,13-[D-Agl^8(Me,2-naphthoyl)]SRIF inhibits the binding to SSTR3 of an iodinated SRIF-28 ligand that has strong affinity for all five receptors.” for “sites.”
# as §3, §4
# (§6) Receptor autoradiography is performed on 20 μm thick cryostat sections of the membrane pellets, mounted on microscope slides, and then stored at −20° C. For each of the tested compounds, complete displacement experiments are performed with the universal somatostatin ligand radioligand ^125I-[Leu^8,D-Trp^22,Tyr^25]-somatostatin-28 that binds with strong affinity to all five receptors. Increasing concentrations of the unlabeled peptide are used ranging from 0.1-1000 nM. Unlabeled somatostatin-28 is run in parallel using the same increasing concentrations, as a control. IC50 values are calculated after quantification of the data using a computer-assisted image processing system as known in this art.
# (§7) The potencies of certain SRIF analogs to inhibit radioligand binding of ^125I-[Leu^8,D-Trp^22,[…]]SRIF-28 to the various cloned SRIF receptors are shown in the following table wherein the IC50 values are given in nanomolar concentration.
# human SSTR4 = molecular target: T4, human SSTR4 (Homo sapiens, UniProt P31391); experiment: Displacement of 125I-[Leu8,D-Trp22,Tyr25]-somatostatin-28 from cloned SSTR4 (receptor autoradiography on membrane pellets)
# T4 construct: expressed in transfected cells; host or cells: CHO-K1 cells and CCL39 cells
# T4 sequence (P31391 whole entry): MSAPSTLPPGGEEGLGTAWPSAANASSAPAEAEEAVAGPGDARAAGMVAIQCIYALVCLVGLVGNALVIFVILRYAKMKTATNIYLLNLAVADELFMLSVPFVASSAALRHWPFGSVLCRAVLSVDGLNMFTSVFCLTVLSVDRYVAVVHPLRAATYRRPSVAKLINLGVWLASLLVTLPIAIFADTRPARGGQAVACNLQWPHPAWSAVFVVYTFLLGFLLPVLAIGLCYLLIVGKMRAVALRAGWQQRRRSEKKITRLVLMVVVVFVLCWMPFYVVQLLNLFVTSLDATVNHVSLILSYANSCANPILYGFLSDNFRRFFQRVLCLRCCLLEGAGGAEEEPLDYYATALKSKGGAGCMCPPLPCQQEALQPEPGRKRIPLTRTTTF
# Method: as §1, §2, §3, §4, §5
# human SSTR5 [2] = molecular target: T5, human SSTR5 (Homo sapiens, UniProt P35346); experiment: Displacement of 125I-[Leu8,D-Trp22,Tyr25]-somatostatin-28 from cloned SSTR5 (receptor autoradiography on membrane pellets)
# T5 construct: expressed in transfected cells; host or cells: CHO-K1 cells and CCL39 cells
# T5 sequence (P35346 whole entry): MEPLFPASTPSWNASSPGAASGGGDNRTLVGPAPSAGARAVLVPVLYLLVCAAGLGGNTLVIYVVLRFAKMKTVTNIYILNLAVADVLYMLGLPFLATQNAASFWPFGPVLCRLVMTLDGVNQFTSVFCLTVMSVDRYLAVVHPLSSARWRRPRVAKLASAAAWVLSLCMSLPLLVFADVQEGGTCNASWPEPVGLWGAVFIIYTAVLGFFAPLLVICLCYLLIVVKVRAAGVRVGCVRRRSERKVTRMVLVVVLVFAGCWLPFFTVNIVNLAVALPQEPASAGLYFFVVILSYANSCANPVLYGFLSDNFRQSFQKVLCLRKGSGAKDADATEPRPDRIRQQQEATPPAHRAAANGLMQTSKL
# Method: as §1
# as §2, with “sites. The peptide des-AA^1,2,4,5,12,13-[D-Agl^8(Me,2-naphthoyl)]SRIF inhibits the binding to SSTR3 of an iodinated SRIF-28 ligand that has strong affinity for all five receptors.” for “sites.”
# as §3, §4
# as §6, with “Increasing concentrations of the unlabeled peptide are used ranging from 0.1-1000 nM.” left out
# as §7
# human SSTR3 [3] = molecular target: T3, human SSTR3; experiment: Displacement of 125I-[Leu8,D-Trp22,Tyr25]-somatostatin-28 from cloned SSTR3 (receptor autoradiography on membrane pellets); conditions: 125I-labelled Tyr2 analog tested as radioligand on cloned receptor
# human SSTR5 [4] = molecular target: T5, human SSTR5; experiment: Displacement of 125I-[Leu8,D-Trp22,Tyr25]-somatostatin-28 from cloned SSTR5 (receptor autoradiography on membrane pellets); conditions: 125I-labelled Tyr2 analog tested as radioligand on cloned receptor
# [5] = inhibition of 125I-[Leu8,D-Trp22,Tyr24]SRIF-28 binding, cloned receptor, read-out: IC50 (nM) mSSTR1
# [6] = inhibition of 125I-[Leu8,D-Trp22,Tyr24]SRIF-28 binding, cloned receptor, read-out: IC50 (nM) mSSTR2
# [7] = inhibition of 125I-[Leu8,D-Trp22,Tyr24]SRIF-28 binding, cloned receptor, read-out: IC50 (nM) mSSTR3
# [8] = inhibition of 125I-[Leu8,D-Trp22,Tyr24]SRIF-28 binding, cloned receptor, read-out: IC50 (nM) mSSTR4
# [9] = inhibition of 125I-[Leu8,D-Trp22,Tyr24]SRIF-28 binding, cloned receptor, read-out: IC50 (nM) mSSTR5
IC50 (human SSTR1; [5]) [nM],IC50 (human SSTR2; [6]) [nM],relative potency at SSTR3 by comparison to SRIF-28 (human SSTR3 [1]; binding affinity relative to SRIF-28 (=1)),IC50 (human SSTR3 [1]; [7]) [nM],IC50 (human SSTR4; [8]) [nM],IC50 (human SSTR5 [2]; [9]) [nM],"IC50 (human SSTR1; iodinated SRIF-28 ligand, cloned human receptor, read-out: concentration below which no binding to human SSTR1) [nM]","IC50 (human SSTR2; iodinated SRIF-28 ligand, cloned human receptor, read-out: concentration below which no binding to human SSTR2) [nM]","IC50 (human SSTR3 [1]; iodinated SRIF-28 ligand, cloned human receptor, read-out: IC50 at cloned human SSTR3) [nM]","IC50 (human SSTR4; iodinated SRIF-28 ligand, cloned human receptor, read-out: concentration below which no binding to human SSTR4) [nM]","IC50 (human SSTR5 [2]; iodinated SRIF-28 ligand, cloned human receptor, read-out: concentration below which no binding to human SSTR5) [nM]",binding of the radioiodinated analog to SSTR5 (human SSTR5 [4]),Compound,"binding strength and selectivity for SSTR3, in words (human SSTR3 [1]; listed as Peptide 2F)","binding strength and selectivity for SSTR3, in words (human SSTR3 [1])",binding of the radioiodinated analog to SSTR3 (human SSTR3 [3])
> 10000,> 10000,about 1.4,6.7 ± 2.6,> 10000,> 10000,,,,,,,"C[C@@H](O)[C@@H]1NC(=O)[C@H](CCCCN)NC(=O)[C@@H](N(C)C(=O)c2ccc3ccccc3c2)NC(=O)[C@H](Cc2ccc(O)cc2)NC(=O)[C@H](Cc2ccccc2)NC(=O)[C@H](NC(N)=O)CSSC[C@@H](C(=O)O)NC(=O)[C@H](Cc2ccccc2)NC1=O [Peptide No. 2F, (cyclo 3-14)Cbm-D-Cys-Phe-Tyr-D-Agl(Me,2Np)-Lys-Thr-Phe-Cys-OH]",bind strongly and selectively to SSTR3; also recorded: binding strength essentially equal to that of SRIF-28,,
> 10000,> 1000,,80,> 1000,> 1000,> 1000,> 1000,~80,> 1000,> 1000,,"C[C@@H](O)[C@@H]1NC(=O)[C@H](CCCCN)NC(=O)[C@@H](Cc2ccc3ccccc3c2)NC(=O)[C@H](N(C)C(=O)c2ccccc2)NC(=O)[C@H](Cc2ccccc2)NC(=O)[C@@H](N)CSSC[C@@H](C(=O)O)NC(=O)[C@H](Cc2ccccc2)NC1=O [Peptide No. 3, (cyclo 3-14)H-Cys-Phe-Agl(Me,Bz)-D-2Nal-Lys-Thr-Phe-Cys-OH]",,bind selectively to SSTR3; also recorded: selectively binds SSTR3,
,,,,,,,,,,,No specific binding,"(cyclo)H-Tyr-Cys-Phe-Phe-D-Agl(Me,2Np)-Lys-Thr-Phe-Cys-OH [Peptide No. 4]",,,continues to bind strongly to SSTR3; also recorded: effectively binds to SSTR3 to about the same extent as Peptide No. 2B
